Active and inactive are the calls of the source. The rule behind the calls is not given here.

Data set [1] has as its system Plasmodium berghei. Description: Antimalarial activity against Plasmodium berghei KBG 173 infected in mouse assessed as cured animal from parasite infection at 40 mg/kg. Type of data set: functional, organism-based. More on the design: dose 40 mg/kg.
In data set [2] the test system is Plasmodium berghei. As to the kind of experiment: Antimalarial activity against Plasmodium berghei KBG 173 infected in mouse assessed as increase of mean survival time at 160 mg/kg. In kind it is functional.
The test system of data set [3] is Mus musculus. As to the kind of experiment: Toxicity in Plasmodium berghei KBG 173 infected mouse at 160 mg/kg. In kind it is organism-based. More on the design: dose 160 mg/kg. To be noted: in vivo.
The test system of data set [4] is Plasmodium berghei. As to the kind of experiment: Antimalarial activity against Plasmodium berghei KBG 173 infected in mouse assessed as cured animal from parasite infection at 160 mg/kg. In kind it is functional, organism-based. Further details: dose 160 mg/kg.
In data set [5] the test system is Plasmodium berghei. As to the kind of experiment: Antimalarial activity against Plasmodium berghei KBG 173 infected in mouse assessed as increase of mean survival time at 640 mg/kg. In kind it is functional.
The test system of data set [6] is Mus musculus. Description: Toxicity in Plasmodium berghei KBG 173 infected mouse at 640 mg/kg. Type of data set: organism-based. Further details: dose 640 mg/kg. To be noted: in vivo.
The test system of data set [7] is Plasmodium berghei. Description: Antimalarial activity against Plasmodium berghei KBG 173 infected in mouse assessed as cured animal from parasite infection at 640 mg/kg. Type of data set: functional, organism-based. Further details: dose 640 mg/kg.
In data set [8] the test system is Plasmodium berghei. Description: Antimalarial activity against Plasmodium berghei KBG 173 infected in mouse assessed as increase of mean survival time at 40 mg/kg. Type of data set: functional.
Data set [9] deals with Plasmodium berghei. Description: Antimalarial activity against Plasmodium berghei KBG 173 infected in mouse assessed as cured animal from parasite infection at 80 mg/kg. Type of data set: functional, organism-based. More on the design: dose 80 mg/kg.
Data set [10] has as its system Plasmodium berghei. Description: Antimalarial activity against Plasmodium berghei KBG 173 infected in mouse assessed as cured animal from parasite infection at 320 mg/kg. In kind it is functional, organism-based. More on the design: dose 320 mg/kg.
The subject of data set [11] is Mus musculus. As to the kind of experiment: Toxicity in Plasmodium berghei KBG 173 infected mouse at 40 mg/kg. Type of data set: organism-based. Further details: dose 40 mg/kg. To be noted: in vivo.

With `C/C(=N/NC(=S)N1CCCCC1C)c1ccccn1` (centres undefined), the result in the data set on Plasmodium berghei [1], in the data set with Plasmodium berghei [4] and with Plasmodium berghei [7] was Active. Further, the Survival in the data set on Plasmodium berghei [2] and in the data set on Plasmodium berghei [5] was 0 days in each case. Besides, the Activity result with Mus musculus [3] and in the data set on Mus musculus [6] was “Toxic” throughout.

Take `C/C(=N/NC(=S)N(C)CC(O)C(O)C(O)C(O)CO)c1ccccn1` (centres undefined): the Survival in the data set with Plasmodium berghei [8] is 0.2 days; with Plasmodium berghei [2], 1.4 days; in the data set with Plasmodium berghei [5], 0.3 days. For the same compound, the Activity entry with Mus musculus [6] is “Toxic”.

For the compound `C/C(=N/NC(=S)N1CCC(c2ccccc2)CC1)c1ccccn1`, in the data set on Plasmodium berghei [8], the Survival is 0.4 days. The outcome in the data set with Plasmodium berghei [9], with Plasmodium berghei [4], in the data set on Plasmodium berghei [10] and in the data set on Plasmodium berghei [7] was Active.

With `C/C(=N/NC(=S)N1CCCCC1)c1ccccn1`, the Survival with Plasmodium berghei [8] was -0.4 days; with Plasmodium berghei [2], -0.4 days; in the data set on Plasmodium berghei [5] it was 0 days.

For `C/C(=N/NC(=S)N1CCN(c2ccccn2)CC1)c1ccccn1`, the result in the data set with Plasmodium berghei [1], in the data set on Plasmodium berghei [9], in the data set on Plasmodium berghei [4], with Plasmodium berghei [10] and in the data set on Plasmodium berghei [7] was Active.

Consider `C/C(=N/NC(=S)N1CC=CCC1)c1ccccn1`, for which the results for the Survival in the data set on Plasmodium berghei [8], in the data set on Plasmodium berghei [2] and in the data set with Plasmodium berghei [5] were 4 days, 1.4 days and 7.4 days, respectively. Besides, the Activity entry in the data set on Mus musculus [3] and with Mus musculus [6] was “Toxic” in each case.

With `C/C(=N/NC(=S)N1CCCCCCCCCCCC1)c1ccccn1`, the Survival is 0 days in the data set with Plasmodium berghei [8], 0.1 days with Plasmodium berghei [2] and 2.9 days in the data set on Plasmodium berghei [5].

For the compound `C/C(=N/NC(=S)N1CCCCCCC1)c1ccccn1`, the Survival in the data set with Plasmodium berghei [8] stood at 0.6 days. In addition, the result in the data set with Plasmodium berghei [9], in the data set on Plasmodium berghei [4], in the data set on Plasmodium berghei [10] and in the data set on Plasmodium berghei [7] was Active.

With `C/C(=N/NC(=S)N1CCCCCCCC1)c1ccccn1`, the Survival with Plasmodium berghei [8] was -0.3 days; in the data set with Plasmodium berghei [2], 1.7 days; in the data set with Plasmodium berghei [5], 9 days. In addition, the result in the data set on Plasmodium berghei [7] was Active.

Consider `C/C(=N/NC(=S)N(C)CCc1ccccc1)c1ccccn1`, for which the Survival in the data set on Plasmodium berghei [8] turned out to be 0.4 days; with Plasmodium berghei [2], 7.2 days. Moreover, the result with Plasmodium berghei [4] and in the data set with Plasmodium berghei [7] was Active.

For `C/C(=N/NC(=S)N1CCCC1)c1ccccn1`, the Survival came to 8.9 days with Plasmodium berghei [8], 0 days in the data set with Plasmodium berghei [2] and 0 days in the data set with Plasmodium berghei [5]. Also, the Activity entry in the data set with Mus musculus [11], in the data set with Mus musculus [3] and in the data set with Mus musculus [6] was “Toxic” throughout. In addition, the outcome with Plasmodium berghei [1], with Plasmodium berghei [4] and with Plasmodium berghei [7] was Active.

For `C/C(=N/NC(=S)N(C)C)c1ccccn1`, the Survival with Plasmodium berghei [8] was 0.5 days; in the data set with Plasmodium berghei [2], 0 days; with Plasmodium berghei [5], 0 days. For the same compound, the Activity result in the data set on Mus musculus [11], in the data set with Mus musculus [3] and in the data set with Mus musculus [6] was “Toxic” throughout. Also, the result with Plasmodium berghei [4] and with Plasmodium berghei [7] was Active.

Turning to `C/C(=N/NC(=S)N1CCN(c2ccccn2)CC1)c1ccccn1.Cl`, the Survival in the data set with Plasmodium berghei [8] was determined as 3.2 days; in the data set on Plasmodium berghei [5] it was 0 days. In the data set on Mus musculus [6], the Activity entry is on record as “Toxic”.

As for `C/C(=N/NC(=S)N1CCC(C)CC1)c1ccccn1`, the result in the data set on Plasmodium berghei [1], in the data set on Plasmodium berghei [4] and in the data set on Plasmodium berghei [7] was Active. Besides, the Survival in the data set with Plasmodium berghei [2] and in the data set on Plasmodium berghei [5] was 0 days each time. Besides, the Activity entry with Mus musculus [3] and in the data set with Mus musculus [6] was “Toxic” throughout.

As to `C/C(=N/NC(=S)N1CCc2ccccc2C1)c1ccccn1`, the figures for the Survival in the data set with Plasmodium berghei [8] and with Plasmodium berghei [2] were 3.5 days and 7.7 days, respectively. The outcome with Plasmodium berghei [4] and in the data set on Plasmodium berghei [7] was Active.

On to `CCCN(CCC)C(=S)N/N=C(/C)c1ccccn1`, for which the Survival in the data set with Plasmodium berghei [8] came to 0 days; in the data set on Plasmodium berghei [2] it was 0 days; with Plasmodium berghei [5], 3 days. Moreover, the Activity result in the data set on Mus musculus [11] and in the data set on Mus musculus [3] was “Toxic” throughout. Also, the result in the data set with Plasmodium berghei [1] and in the data set with Plasmodium berghei [4] was Active.

For `C/C(=N/NC(=S)N(Cc1ccccc1)Cc1ccccc1)c1ccccn1`, the Survival in the data set with Plasmodium berghei [8] was -0.1 days; in the data set on Plasmodium berghei [2] it was 1.6 days; with Plasmodium berghei [5] it was -0.2 days. Moreover, the Activity entry in the data set with Mus musculus [3] and in the data set on Mus musculus [6] was “Toxic” in each case.

For `CCC1CCCCN1C(=S)N/N=C(/C)c1ccccn1` (centres undefined), the figures for the Survival in the data set on Plasmodium berghei [8] and in the data set on Plasmodium berghei [5] were 5.6 days and -0.2 days, respectively. Further, the outcome in the data set on Plasmodium berghei [4] was Active. In the data set on Mus musculus [6], the Activity entry is recorded as “Toxic”.

As for `C/C(=N/NC(=S)N(C)C1CCCCC1)c1ccccn1`, the Survival was 3.7 days in the data set with Plasmodium berghei [8] and -0.3 days with Plasmodium berghei [5]. Moreover, the Activity entry in the data set on Mus musculus [3] and with Mus musculus [6] was “Toxic” in each case. Besides, in the data set with Plasmodium berghei [4], the result was Active.

`C/C(=N/NC(=S)N1CCN(c2ccc(F)cc2)CC1)c1ccccn1`: the result in the data set with Plasmodium berghei [1], in the data set on Plasmodium berghei [4] and with Plasmodium berghei [7] was Active. Moreover, in the data set on Plasmodium berghei [5], the Survival came to 9 days.

Regarding `C/C(=N/NC(=S)N1CCC1)c1ccccn1`, the Survival in the data set with Plasmodium berghei [8] stood at 1.7 days; in the data set on Plasmodium berghei [2], 0 days; with Plasmodium berghei [5], 0 days. The Activity result with Mus musculus [3] and in the data set with Mus musculus [6] was “Toxic” throughout. Also, the result with Plasmodium berghei [4] and in the data set on Plasmodium berghei [7] was Active.

Take `C/C(=N/NC(=S)N1CCCC(C)C1)c1ccccn1` (centres undefined): the Survival came out at 4.1 days in the data set on Plasmodium berghei [8] and 0 days in the data set on Plasmodium berghei [5]. Also, the Activity entry with Mus musculus [3] and in the data set on Mus musculus [6] was “Toxic” throughout. In addition, the outcome in the data set on Plasmodium berghei [4] and in the data set with Plasmodium berghei [7] was Active.

`C/C(=N/NC(=S)N1CC(C)OC(C)C1)c1ccccn1` (centres undefined): the Activity result in the data set with Mus musculus [11], in the data set with Mus musculus [3] and in the data set on Mus musculus [6] was “Toxic” in each case. The outcome in the data set with Plasmodium berghei [1], in the data set with Plasmodium berghei [4] and in the data set on Plasmodium berghei [7] was Active. In addition, the Survival in the data set with Plasmodium berghei [2] and with Plasmodium berghei [5] was 0 days each time.

For `C/C(=N/NC(=S)N(CC(C)C)CC(C)C)c1ccccn1`, the Survival was -0.2 days in the data set with Plasmodium berghei [8], 0.8 days with Plasmodium berghei [2] and 0.5 days in the data set with Plasmodium berghei [5]. The Activity result with Mus musculus [3] and in the data set with Mus musculus [6] was “Toxic” in each case.

On to `C/C(=N/NC(=S)N1CCC2(CC1)OCCO2)c1ccccn1`, for which the Survival with Plasmodium berghei [8], in the data set on Plasmodium berghei [2] and in the data set on Plasmodium berghei [5] was 0 days throughout. Also, the Activity result in the data set on Mus musculus [11], with Mus musculus [3] and in the data set on Mus musculus [6] was “Toxic” each time. For the same compound, the result in the data set on Plasmodium berghei [1] and in the data set with Plasmodium berghei [4] was Active.

Consider `C/C(=N/NC(=S)N1CCN(C)CC1)c1ccccn1`, for which the Survival in the data set on Plasmodium berghei [8], in the data set with Plasmodium berghei [2] and with Plasmodium berghei [5] was 0 days each time. For the same compound, the Activity entry with Mus musculus [11], with Mus musculus [3] and in the data set with Mus musculus [6] was “Toxic” throughout. Also, the result with Plasmodium berghei [1] and in the data set on Plasmodium berghei [4] was Active.

Regarding `C/C(=N/NC(=S)N1CCCN(C)CC1)c1ccccn1`, the Survival is 0.8 days with Plasmodium berghei [8], 0.8 days with Plasmodium berghei [2] and 0 days in the data set on Plasmodium berghei [5]. The Activity result in the data set on Mus musculus [11], in the data set with Mus musculus [3] and in the data set with Mus musculus [6] was “Toxic” in each case.

For `C/C(=N/NC(=S)N1CCc2ccccc21)c1ccccn1`, the values for the Survival with Plasmodium berghei [8], with Plasmodium berghei [2] and in the data set with Plasmodium berghei [5] were 0.5 days, 0.3 days and 0.3 days, respectively. In addition, the Activity result with Mus musculus [3] and in the data set with Mus musculus [6] was “Toxic” throughout.

Regarding `CCOC(=O)N1CCN(C(=S)N/N=C(/C)c2ccccn2)CC1`, the Activity result in the data set with Mus musculus [11], with Mus musculus [3] and with Mus musculus [6] was “Toxic” each time. Moreover, the result with Plasmodium berghei [1], in the data set on Plasmodium berghei [4] and with Plasmodium berghei [7] was Active. Moreover, the Survival in the data set on Plasmodium berghei [2] and in the data set on Plasmodium berghei [5] was 0 days throughout.

On to `C/C(=N/NC(=S)N1CCC(O)CC1)c1ccccn1`, for which the figures for the Survival in the data set with Plasmodium berghei [8], with Plasmodium berghei [2] and in the data set with Plasmodium berghei [5] were -0.1 days, 0 days and 0.6 days, respectively. In addition, the Activity result in the data set on Mus musculus [11], in the data set with Mus musculus [3] and with Mus musculus [6] was “Toxic” throughout. In the data set with Plasmodium berghei [4], the outcome was Active.

The values above are taken from ChEMBL document CHEMBL3244333, “2-Acetylpyridine thiosemicarbazones. 2. N4,N4-Disubstituted derivatives as potential antimalarial agents” (J Med Chem, 1979).
